According to patent publication US9169355B2, “Biocompatible agent for dispersing nanoparticles into an aqueous medium using mussel adhesive protein-mimetic polymer” (Hanwha Chemical Corporation, priority 2010, dated 2015):

Conditions: mouse, in vivo

half-life in blood: prolonged
Substance: Fe3O4
